# Test results from PMC12307812 (Nature Communications, 2025).
# Read-outs that look alike come from different tables or passages of the source.
# Key:
# Assay in all cases: organism not typed
# Assay type in all cases: cell-based
# [1] = tested on: pseudovirus bearing S protein of HCoV-NL63; details: for IC50: Calu-3, read-out: IC50 estimate, pseudovirus cell entry NL63-S; for inhibition at 0.00025 µM / inhibition at 0.0025 µM / inhibition at 0.025 µM / inhibition at 0.25 µM / inhibition at 2.5 µM / inhibition at 25 µM: Calu-3, read-out: mean inhibition
# [2] = tested on: pseudovirus bearing S protein of MERS-CoV; details: for IC50: Calu-3, read-out: IC50 estimate, pseudovirus cell entry MERS-S; for inhibition at 0.00025 µM / inhibition at 0.0025 µM / inhibition at 0.025 µM / inhibition at 0.25 µM / inhibition at 2.5 µM / inhibition at 25 µM: Calu-3; for inhibition at 0.00025 µM: concentration 0.25 nM; for inhibition at 0.0025 µM: concentration 2.5 nM; for inhibition at 0.025 µM: concentration 25 nM; for inhibition at 0.25 µM: concentration 250 nM; for inhibition at 2.5 µM: concentration 2500 nM; for inhibition at 25 µM: concentration 25000 nM
# [3] = tested on: pseudovirus bearing S protein of SARS-CoV-2 lineage B.1; details: for inhibition at 0.00025 µM / inhibition at 0.0025 µM / inhibition at 0.025 µM / inhibition at 0.25 µM / inhibition at 2.5 µM / inhibition at 25 µM: Calu-3, B.1; for inhibition at 0.00025 µM: concentration 0.25 nM; for inhibition at 0.0025 µM: concentration 2.5 nM; for inhibition at 0.025 µM: concentration 25 nM; for inhibition at 0.25 µM: concentration 250 nM; for inhibition at 2.5 µM: concentration 2500 nM; for inhibition at 25 µM: concentration 25000 nM; for IC50: Calu-3 cells, read-out: IC50, pseudovirus cell entry B.1
# [4] = tested on: pseudovirus bearing S protein of SARS-CoV-2 lineage EG.5.1; details: for inhibition at 0.00025 µM / inhibition at 0.0025 µM / inhibition at 0.025 µM / inhibition at 0.25 µM / inhibition at 2.5 µM / inhibition at 25 µM: Calu-3, EG.5.1; for inhibition at 0.00025 µM: concentration 0.25 nM; for inhibition at 0.0025 µM: concentration 2.5 nM; for inhibition at 0.025 µM: concentration 25 nM; for inhibition at 0.25 µM: concentration 250 nM; for inhibition at 2.5 µM: concentration 2500 nM; for inhibition at 25 µM: concentration 25000 nM
# [5] = tested on: pseudovirus bearing S protein of SARS-CoV-2 lineage BA.2.86; details: for inhibition at 0.00025 µM / inhibition at 0.0025 µM / inhibition at 0.025 µM / inhibition at 0.25 µM / inhibition at 2.5 µM / inhibition at 25 µM: Calu-3, BA.2.86; for inhibition at 0.00025 µM: concentration 0.25 nM; for inhibition at 0.0025 µM: concentration 2.5 nM; for inhibition at 0.025 µM: concentration 25 nM; for inhibition at 0.25 µM: concentration 250 nM; for inhibition at 2.5 µM: concentration 2500 nM; for inhibition at 25 µM: concentration 25000 nM; for IC50: Calu-3 cells, read-out: IC50, pseudovirus cell entry BA.2.86
# [6] = tested on: pseudovirus bearing S protein of SARS-CoV-2 lineage B.1.617.2; details: for inhibition at 0.00025 µM / inhibition at 0.0025 µM / inhibition at 0.025 µM / inhibition at 0.25 µM / inhibition at 2.5 µM / inhibition at 25 µM: Calu-3, B.1.617.2; for inhibition at 0.00025 µM: concentration 0.25 nM; for inhibition at 0.0025 µM: concentration 2.5 nM; for inhibition at 0.025 µM: concentration 25 nM; for inhibition at 0.25 µM: concentration 250 nM; for inhibition at 2.5 µM: concentration 2500 nM; for inhibition at 25 µM: concentration 25000 nM; for IC50: Calu-3 cells, read-out: IC50, pseudovirus cell entry B.1.617.2
# [7] = Calu-3 cells, Fig. 4g, read-out: IC50 estimate, pseudovirus cell entry EG.5.1
# [8] = Calu-3 cells, read-out: IC50, EG.5.1-S protein-driven Calu-3 cell entry
structure (smiles),measurement,setting,value
CC(C)(C)NC(=O)N1CCN(C(=O)N2C(=O)C(CCCNC(=N)N)C2C(=O)O)CC1 (stereo not drawn) [BMS-262084],IC50,[1],432 ± 223 nM
same,inhibition at 0.00025 µM,[1],-0.475%
same,inhibition at 0.0025 µM,[1],8.77%
same,inhibition at 0.025 µM,[1],16.9%
same,inhibition at 0.25 µM,[1],57.8%
same,inhibition at 2.5 µM,[1],66.8%
same,inhibition at 25 µM,[1],73.5%
same,IC50,[2],101 ± 24.2 nM
same,inhibition at 0.00025 µM,[2],0.787%
same,inhibition at 0.0025 µM,[2],-4.71%
same,inhibition at 0.025 µM,[2],29.1%
same,inhibition at 0.25 µM,[2],67.2%
same,inhibition at 2.5 µM,[2],89.3%
same,inhibition at 25 µM,[2],93%
same,inhibition at 0.00025 µM,[3],7.25%
same,inhibition at 0.0025 µM,[3],11.1%
same,inhibition at 0.025 µM,[3],52.1%
same,inhibition at 0.25 µM,[3],86.2%
same,inhibition at 2.5 µM,[3],92.8%
same,inhibition at 25 µM,[3],93.3%
same,IC50,[3],24.5 nM
same,inhibition at 0.00025 µM,[4],10.3%
same,inhibition at 0.0025 µM,[4],16.8%
same,inhibition at 0.025 µM,[4],26.9%
same,inhibition at 0.25 µM,[4],51.3%
same,inhibition at 2.5 µM,[4],58.1%
same,inhibition at 25 µM,[4],57.8%
same,"fold less efficient inhibition of EG.5.1-S entry compared to B.1-S, B.1.617.2-S or BA.2.86-S",[4]; Calu-3 cells,20–50 fold
same,IC50,[4]; [7],1200 ± 763 nM
same,IC50,[4]; [8],1200 nM
same,inhibition at 0.00025 µM,[5],2.76%
same,inhibition at 0.0025 µM,[5],1.45%
same,inhibition at 0.025 µM,[5],44.5%
same,inhibition at 0.25 µM,[5],74.7%
same,inhibition at 2.5 µM,[5],89.7%
same,inhibition at 25 µM,[5],98.9%
same,IC50,[5],48.2 nM
same,inhibition at 0.00025 µM,[6],-3.95%
same,inhibition at 0.0025 µM,[6],6%
same,inhibition at 0.025 µM,[6],32.3%
same,inhibition at 0.25 µM,[6],82.7%
same,inhibition at 2.5 µM,[6],96.1%
same,inhibition at 25 µM,[6],96.1%
same,IC50,[6],52.5 nM
CN(C)C(=O)COC(=O)Cc1ccc(OC(=O)c2ccc(NC(=N)N)cc2)cc1 [camostat],IC50,[1],806 ± 263 nM
same,inhibition at 0.00025 µM,[1],-3.23%
same,inhibition at 0.0025 µM,[1],5.92%
same,inhibition at 0.025 µM,[1],15.4%
same,inhibition at 0.25 µM,[1],41.9%
same,inhibition at 2.5 µM,[1],66.4%
same,inhibition at 25 µM,[1],73.2%
same,IC50,[2],189 ± 12.3 nM
same,inhibition at 0.00025 µM,[2],0.136%
same,inhibition at 0.0025 µM,[2],2.04%
same,inhibition at 0.025 µM,[2],13.3%
same,inhibition at 0.25 µM,[2],57.4%
same,inhibition at 2.5 µM,[2],89.2%
same,inhibition at 25 µM,[2],95.7%
same,inhibition at 0.00025 µM,[3],-1.94%
same,inhibition at 0.0025 µM,[3],3.06%
same,inhibition at 0.025 µM,[3],2.53%
same,inhibition at 0.25 µM,[3],60.8%
same,inhibition at 2.5 µM,[3],89.4%
same,inhibition at 25 µM,[3],96.6%
same,IC50,[3],190 nM
same,inhibition at 0.00025 µM,[4],3.95%
same,inhibition at 0.0025 µM,[4],-5.66%
same,inhibition at 0.025 µM,[4],19.1%
same,inhibition at 0.25 µM,[4],34.3%
same,inhibition at 2.5 µM,[4],43.1%
same,inhibition at 25 µM,[4],52.7%
same,IC50,[4]; [7],8560 ± 6540 nM
same,IC50,[4]; [8],8560 nM
same,inhibition at 0.00025 µM,[5],2.77%
same,inhibition at 0.0025 µM,[5],3.7%
same,inhibition at 0.025 µM,[5],24%
same,inhibition at 0.25 µM,[5],61.2%
same,inhibition at 2.5 µM,[5],85.5%
same,inhibition at 25 µM,[5],85.8%
same,IC50,[5],148 nM
same,inhibition at 0.00025 µM,[6],-0.882%
same,inhibition at 0.0025 µM,[6],3.07%
same,inhibition at 0.025 µM,[6],10.5%
same,inhibition at 0.25 µM,[6],57.9%
same,inhibition at 2.5 µM,[6],90.4%
same,inhibition at 25 µM,[6],96.4%
same,IC50,[6],191 nM
